In US7341867B2, “Human preprotachykinin gene promoter” (University of Medicine & Dentistry of New Jersey, priority 1999, dated 2008):

What was measured:
MCF12A = experiment: Clonogenic assay, nontransformed mammary epithelial cells; type: cell-based; settings: 1 mM antagonist, 2 weeks; for # of colonies/10^3 cells (±SD): methyl cellulose matrix
Procedure: (§1) Clonogenic assays studied the proliferation of breast cancer cell lines. Duplicate cultures were performed with 10^3 cells/ml in 1.2% methylcellulose matrix that contained various concentrations (between about 100 to 0.001 mM) of NK-1, NK-2 or (NK-1+NK-2) antagonists. Baseline cultures contained media alone. For each cell line, the assay contained the appropriate culture media. Cultures were incubated for 2 wk at 37° C. This was followed by enumeration of colonies that contained more than 10 cells. In a highly preferred embodiment, the concentration of antagonist is 1 nM.
(§2) Increased expression of PPT-I and NK-1 in breast cancer cells (Tables 1 and 2) led to the next set of experiments. A functional role for these genes in breast cancer is established by determining whether PPT-I peptides, endogenously produced by breast cancer cells, can induce their proliferation through autocrine and/or paracrine mechanisms. This question was addressed in six different experiments using clonogenic assay. […] NK-1 or NK-2 antagonists blunted breast cancer cell proliferation by approximately […] when compared to cultures with media alone (Table 4). […] There was no significant difference (p>0.5) in cell proliferation when normal mammary epithelial cells (MCF12A and H5578Bst) were cultured with the antagonists. […] Reduced colony formation was not due to necrosis since >99% of the cells were trypan blue negative in suspension cultures, performed for two weeks with antagonists.

Hs578Bst = experiment: as above; type: cell-based; settings: 1 mM antagonist, 2 weeks; for # of colonies/10^3 cells (±SD): methyl cellulose matrix
Procedure: as §1, §2

BT474 = experiment: Clonogenic assay, proliferation of breast cancer cell line; type: cell-based; settings: 1 mM antagonist, 2 weeks; for # of colonies/10^3 cells (±SD): methyl cellulose matrix
Procedure: as §1, §2

Du4475 = experiment: as above; type: cell-based; settings: 1 mM antagonist, 2 weeks; for # of colonies/10^3 cells (±SD): methyl cellulose matrix
Procedure: as §1, §2

T47D = experiment: as above; type: cell-based; settings: 1 mM antagonist, 2 weeks; for # of colonies/10^3 cells (±SD): methyl cellulose matrix
Procedure: as §1, §2

ZR7530 = experiment: as above; type: cell-based; settings: 1 mM antagonist, 2 weeks; for # of colonies/10^3 cells (±SD): methyl cellulose matrix
Procedure: as §1, §2

MDAMB-330 = experiment: as above; type: cell-based; settings: 1 mM antagonist, 2 weeks; for # of colonies/10^3 cells (±SD): methyl cellulose matrix
Procedure: as §1, §2

β-PPT-I mRNA = experiment: Quantitative RT-PCR in stimulated bone marrow stroma; type: cell-based, human; settings: for β-PPT-I (molecules/μg total RNA): 8 ng/ml SCF and/or 10 nM CP-99,994
Procedure: (§3) In a second embodiment of the present invention, bone marrow stroma was stimulated in serum-free α-MEM supplemented with Insulin-transferrin-selenium-A (Life Technologies). Quantitative RT-PCR with total RNA, extracted from bone marrow stroma and construction of standard DNA was performed as described in Singh, D., supra. The end sequences of the standard DNA contained gene-specific sequences that are complementary for the reaction primers. The primers in the standard DNA flank neutral DNA. Total RNA (2 μg) was reverse transcribed and 200 ng cDNA used in PCR with specific oligonucleotide primers for PPT-I, NK-1 or NK-2. Standard DNA, log10 fold dilutions, ranged between 10^−2 to 10^−6 attomole/L. Each unknown sample was assayed with a particular concentration of standard DNA in the same reaction tube. PCR products (10 μl) were separated by electrophoresis on 1.5% agarose containing ethidium bromide and the densities of the DNA bands quantitated with a Fluorimager (Molecular Dynamics, Sunnyvale, Calif.) and then analyzed with ImageQuant software. A standard curve was established for each unknown sample: band densities of unknown/standard DNA vs. Log10 standard DNA concentration was used to determine the concentration of RNA molecules in the unknown samples. The concentration of the unknown sample was selected at the concentration in which the ratio of the unknown and standard were equivalent.
(§4) Transfected bone marrow stroma was stimulated with optimal concentrations of IL-1α (2.5 ng/ml), SCF (8 ng/ml) or 1 nM substance P, SP (Sigma, St Louis, Mo.) and/or 10 nM NK-1-specific antagonist (CP-99,994) in α-MEM with 2% FCS. In other embodiments, bone marrow stroma was stimulated with 5 μg/ml forskolin, FK (Sigma) for 2 and 5 h. SCF was purchased from R&D Systems (Minneapolis, Minn.) and IL-1α was obtained from Hoffman LaRoche, Nutley, N.J. Pfizer, Inc. (Groton, Conn.) provided CP-99,994. Substance P and CP-99,994 were dissolved and stored as described in Ramewshwar et al (1996), supra. Optimal parameters were determined with dose-response and time-course studies.
Confluent bone marrow stroma was stimulated with 25 ng/ml rhIL-1α or 10 ng/ml SCF for 24 h. Poly A RNA was isolated from total RNA by selection (2×) on oligo-dT cellulose (Life Technologies). The cellulose column was washed once with 10 mM Tris, pH 7.0; 0.5 M NaCl; […] and once with 10 mM Tris, pH 7.0; 0.2 M NaCl; […]. Poly A RNA was eluted with 10 mM Tris (pH 7.0) and […]. RNA was precipitated by standard techniques and then resuspended in DEPC-treated water. The purity was verified by the absence of rRNA.

[1] = test system: PPT-I promoter (Upstream/N0); experiment: Luciferase reporter gene assay, pGL3-Upstream/N0 in transfected bone marrow stroma; type: cell-based, human
Procedure: as §4
pGL3-basic with inserts of different fragments from PPT-I-p1.2 was co-transfected with pβ-gal-Control (0.5 μg each) in 80% confluent bone marrow stroma using SuperFect (Qiagen, Valencia, Calif.). After 48 h cells were scraped in 30 μl 250 mM Tris (pH 8.0) and then lysed by freezing and thawing in a dry ice/ethanol bath. Cell-free lysates (24 μl) were obtained by centrifugation at 15,000 g for 5 min at 4° C. and then diluted with 5× cell culture lysis buffer (Promega). Luciferase and β-gal activities were quantitated with 10 μl of lysates using Luciferase assay system (Promega) and Luminescent β-galactosidase detection kit II (Clontech) respectively. In the experimental model, the ratios of Luciferase/β-gal in cells transfected with vector alone ranged from 0.18 to 0.19 and was normalized to 1. Because cytokines induce the promoter upstream of β-gal, in cytokine-stimulated cells, luciferase activity was presented/mg of total protein the levels normalized with stroma transfected with vector alone. Total protein was determined using standard techniquees well known in the art.
Mutations were performed with a mutagenesis kit (Stratagene, La Jolla, Calif.). The desired mutant sequences (Table 1) were synthesized within 40 nt in the forward and reverse directions and then used in PCR with pGL3 containing wild type Upstream/N0. After PCR amplification, mutation was verified by identification of Apa L1 within CRE-like mutant and the loss of Xho 1 in CRE mutant.

NK-1 mRNA = experiment: Quantitative RT-PCR in stimulated bone marrow stroma; type: cell-based, human; settings: BM stroma; 8 ng/ml SCF or 2.5 ng/ml IL-1a; 16 h; serum-free α-MEM
Procedure: as §3, §4

NK-2 mRNA = experiment: as above; type: cell-based, human; settings: BM stroma; 8 ng/ml SCF or 2.5 ng/ml IL-1a; 16 h; serum-free α-MEM
Procedure: as §3, §4

COc1ccccc1CN[C@H]1C2CCN(CC2)[C@H]1C(c1ccccc1)c1ccccc1 [CP96,345]
percentage of cells cultured in media alone (MCF12A): (94%) | # of colonies/10^3 cells (±SD) (MCF12A): 198 ± 18 colonies/10^3 cells | # of colonies/10^3 cells (±SD) (Hs578Bst): 201 ± 12 colonies/10^3 cells | percentage of cells cultured in media alone (BT474): 39% | # of colonies/10^3 cells (±SD) (BT474): 70 ± 5 colonies/10^3 cells | percentage of cells cultured in media alone (Du4475): 39% | # of colonies/10^3 cells (±SD) (Du4475): 63 ± 6 colonies/10^3 cells | percentage of cells cultured in media alone (T47D): 40% | # of colonies/10^3 cells (±SD) (T47D): 60 ± 4 colonies/10^3 cells | percentage of cells cultured in media alone (ZR7530): 41% | # of colonies/10^3 cells (±SD) (ZR7530): 68 ± 8 colonies/10^3 cells | percentage of cells cultured in media alone (MDAMB-330): 38% | # of colonies/10^3 cells (±SD) (MDAMB-330): 65 ± 5 colonies/10^3 cells

substance P (RPKPQQFFGLM) [SP, major PPT-I peptide, preferred ligand for NK-1 (Sigma)]
β-PPT-I (molecules/μg total RNA) (β-PPT-I mRNA; BM stroma, 1 nM SP, 16 h): 284 ± 12 molecules/μg total RNA

COc1ccccc1CN[C@H]1CCCN[C@H]1c1ccccc1 [CP-99,994]
luciferase activity in SCF-stimulated cells in the presence of the antagonist ([1]; 10 nM CP-99,994, SCF-stimulated transfected stroma): significantly reduced | luciferase activity, antagonist alone compared to transfectants with vector alone ([1]; antagonist alone): did not affect | reduction of SP-induced β-PPT-I (β-PPT-I mRNA; 10 nM CP-99,994, 1 nM SP): 7 fold | β-PPT-I (molecules/μg total RNA) (β-PPT-I mRNA; BM stroma, 1 nM SP, 16 h): <1 molecules/μg total RNA | effect on induction of endogenous PPT-I by SCF (β-PPT-I mRNA; BM stroma, SCF + CP-99,994): bluned

CC(=O)NC1(c2ccccc2)CCN(CC[C@H](CN(C)C(=O)c2ccccc2)c2ccc(Cl)c(Cl)c2)CC1 [SR48968]
percentage of cells cultured in media alone (MCF12A): 95% | # of colonies/10^3 cells (±SD) (MCF12A): 200 ± 9 colonies/10^3 cells | percentage of cells cultured in media alone (Hs578Bst): 105% | # of colonies/10^3 cells (±SD) (Hs578Bst): 210 ± 11 colonies/10^3 cells | percentage of cells cultured in media alone (BT474): 36% | # of colonies/10^3 cells (±SD) (BT474): 65 ± 8 colonies/10^3 cells | percentage of cells cultured in media alone (Du4475): 38% | # of colonies/10^3 cells (±SD) (Du4475): 60 ± 5 colonies/10^3 cells | percentage of cells cultured in media alone (T47D): 43% | # of colonies/10^3 cells (±SD) (T47D): 65 ± 7 colonies/10^3 cells | percentage of cells cultured in media alone (ZR7530): 36% | # of colonies/10^3 cells (±SD) (ZR7530): 60 ± 10 colonies/10^3 cells | percentage of cells cultured in media alone (MDAMB-330): 38% | # of colonies/10^3 cells (±SD) (MDAMB-330): 64 ± 4 colonies/10^3 cells

B1: IL-1a: cytokine IL-1α obtained from Hoffman LaRoche (protein, UniProt P01583 113-271, looked up)
Interleukin-1 alpha: SAPFSFLSNVKYNFMRIIKYEFILNDALNQSIIRANDQYLTAAALHNLDEAVKFDMGAYKSSKDDAKITVILRISKTQLYVTAQDEDQPVLLKEMPEIPKTITGSETNLLFFWETHGTKNYFTSVAHPNLFIATKQDYWVCLAGGPPSITDFQILENQA
NK-1 mRNA (NK-1 mRNA): 8106 ± 91 Molecules/μg total RNA | NK-2 mRNA (NK-2 mRNA): 968 ± 26 Molecules/μg total RNA | increase in luciferase activities compared to unstimulated cells ([1]; pGL3-Upstream/N0 wild type, optimal SCF or IL-1a, 10 h): 3 fold | induction of luciferase in cells transfected with the double mutants ([1]; pGL3-Upstream/N0 with mutant CRE and CRE-like): no significant induction | β-PPT-I mRNA (β-PPT-I mRNA; BM stroma, 8 ng/ml SCF or 2.5 ng/ml IL-1a, 16 h, serum-free α-MEM): 4849 ± 121 Molecules/μg total RNA | molecules of β-PPT-I/μg poly A (β-PPT-I mRNA; poly A RNA from stroma stimulated with 25 ng/ml rhIL-1α or 10 ng/ml SCF for 24 h, n=6): 250,100±980 molecules of β-PPT-I/μg poly A
